# Assay results: US20260022142A1, “MACROCYCLIC IMMUNOMODULATORS” (Bristol-Myers Squibb Company, priority 2022, published 2026)
# Bridge positions count the residues as written; N and C are the ends. Square brackets hold non-standard residues; d marks the D form. Peptide text beside a SMILES is read from it. * marks the point of attachment. ξ: configuration not given here. Phe(3,4,5-F3) = N[C@@H](Cc1cc(F)c(F)c(F)c1)C(=O)O; Phe(4-CONH2) = NC(=O)c1ccc(C[C@H](N)C(=O)O)cc1; Bip = N[C@@H](Cc1ccc(-c2ccccc2)cc1)C(=O)O; Phe(3-CN) = N#Cc1cccc(C[C@H](N)C(=O)O)c1; Phe(3-Me) = Cc1cccc(C[C@H](N)C(=O)O)c1; NH(CH2)12COOH = O=C(O)CCCCCCCCCCCCN*; Val(3-OH) = CC(C)(O)[C@H](N)C(=O)O; hArg = N=C(N)NCCCC[C@H](N)C(=O)O; 4Pal = N[C@@H](Cc1ccncc1)C(=O)O; Cha = N[C@@H](CC1CCCCC1)C(=O)O; Cit = NC(=O)NCCC[C@H](N)C(=O)O; dCha = N[C@H](CC1CCCCC1)C(=O)O; Thr(3ξ) = CC(O)[C@H](N)C(=O)O; Carboxymethyl = O=C(O)C*; Orn = NCCC[C@H](N)C(=O)O; Pra = C#CC[C@H](N)C(=O)O; Aun = NCCCCCCCCCCC(=O)O; Dab = NCC[C@H](N)C(=O)O; Dap = NC[C@H](N)C(=O)O; AEEA = NCCOCCOCC(=O)O
# Target: T1, PD-1/PD-L1 interaction (PE-labeled human PD-L1-Ig binding to Jurkat cell line over-expressing human PD-1) (Homo sapiens, UniProt Q15116)
# T1 construct: expressed in transfected cells; host or cells: Jurkat
# Test: Jurkat-PD-1 Cell Binding High-Content Screening Assay (CBA)
# Format: cell-based
# Conditions: Jurkat cell line over-expressing human PD-1; PE-labeled PD-L1-Ig 20 nM final; read-out: Jurkat hPD1-PDL1 IC50
# Method in brief: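 Jurkat cells stably over-expressing human PD-1 were seeded in DMEM with 10% fetal calf serum and pre-incubated with compound for 2 h at 37° C. PE-labeled human PD-L1-Ig was then added at 20 nM final for 1 hour, after which cells were fixed with paraformaldehyde, Hoechst-stained and imaged by high-content microscopy.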
# T1 sequence (Q15116 25-288): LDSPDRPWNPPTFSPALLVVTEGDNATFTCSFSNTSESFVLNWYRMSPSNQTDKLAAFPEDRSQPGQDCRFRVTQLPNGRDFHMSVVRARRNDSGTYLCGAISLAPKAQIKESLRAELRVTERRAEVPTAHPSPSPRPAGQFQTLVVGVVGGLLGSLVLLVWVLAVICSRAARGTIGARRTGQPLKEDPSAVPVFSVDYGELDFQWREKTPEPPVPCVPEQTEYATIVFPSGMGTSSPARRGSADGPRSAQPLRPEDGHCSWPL
row,SMILES,IC50 [nM]
1,Cc1cccc(C[C@@H]2NC(=O)[C@H](CC(=O)O)NC(=O)[C@H](Cc3ccc(OCC(=O)O)cc3)NC(=O)[C@H](CN)NC(=O)CSC[C@@H](C(=O)N[C@@H](CCN)C(=O)NCCOCCOCC(=O)NCCCCCCCCCCC(=O)O)NC(=O)[C@H](CCCN)NC(=O)[C@H](C(C)C)NC(=O)[C@H](CC3CCCCC3)NC(=O)[C@H](CCN)NC(=O)[C@@H](CC(C)C)NC(=O)[C@H](CCCN)NC(=O)[C@H](Cc3ccc(O)cc3)NC(=O)[C@H](Cc3ccc(-c4ccccc4)cc3)NC(=O)[C@H](Cc3cccc(C#N)c3)NC2=O)c1 [Compound 2072] ({CH2CO}-[Dap]Y(Carboxymethyl)D[Phe(3-Me)][Phe(3-CN)][Bip]Y[Orn][dL][Dab][Cha]V[Orn]C[Dab][AEEA][Aun]-OH; thioether N-14),8.5
2,CC(C)C[C@H]1NC(=O)[C@H](CCCN)NC(=O)[C@H](C(C)C)NC(=O)[C@H](Cc2ccc(-c3ccccc3)cc2)NC(=O)[C@H](C(C)C)NC(=O)[C@H](Cc2c[nH]c3ccccc23)NC(=O)[C@H](CC(=O)O)NC(=O)[C@H](Cc2ccc(OCC(=O)O)cc2)NC(=O)[C@H](CCCCNC(=N)N)NC(=O)CSC[C@@H](C(=O)N[C@@H](CCCN)C(=O)NCCCCCCCCCCC(=O)O)NC(=O)[C@H](C(C)O)NC(=O)[C@H](C(C)C)NC(=O)[C@H](CC2CCCCC2)NC(=O)[C@H](Cc2cnc[nH]2)NC1=O (stereo partly drawn) [Compound 3159] ({CH2CO}-[hArg]Y(Carboxymethyl)DWV[Bip]V[Orn][dL]H[Cha]V[Thr(3ξ)]C[Orn][Aun]-OH; thioether N-14),42.6
3,Cc1cccc(C[C@@H]2NC(=O)[C@H](CC(=O)O)NC(=O)[C@H](Cc3ccc(O)cc3)NC(=O)[C@H](Cc3ccncc3)NC(=O)CSC[C@@H](C(=O)N[C@@H](CCN)C(=O)NCCOCCOCC(=O)NCCCCCCCCCCC(=O)O)NC(=O)[C@H](CCCN)NC(=O)[C@H](C(C)C)NC(=O)[C@H](CC3CCCCC3)NC(=O)[C@H](CCN)NC(=O)[C@@H](CC(C)C)NC(=O)[C@H](CCCN)NC(=O)[C@H](Cc3ccc(O)cc3)NC(=O)[C@H](Cc3ccc(-c4ccccc4)cc3)NC(=O)[C@H](C(C)C)NC2=O)c1 [Compound 2707] ({CH2CO}-[4Pal]YD[Phe(3-Me)]V[Bip]Y[Orn][dL][Dab][Cha]V[Orn]C[Dab][AEEA][Aun]-OH; thioether N-14),20.8
4,Cc1cccc(C[C@@H]2NC(=O)[C@H](CC(=O)O)NC(=O)[C@H](Cc3ccc(OCC(=O)O)cc3)NC(=O)[C@H](Cc3ccc(C(N)=O)cc3)NC(=O)CSC[C@@H](C(=O)N[C@@H](CCN)C(=O)NCCCCCCCCCCC(=O)O)NC(=O)[C@H](CO)NC(=O)[C@H](C(C)(C)O)NC(=O)[C@H](CC3CCCCC3)NC(=O)[C@H](CCN)NC(=O)[C@@H](CC(C)C)NC(=O)[C@H](CCCN)NC(=O)[C@H](Cc3ccc(OCC(=O)O)cc3)NC(=O)[C@H](Cc3ccc(-c4ccccc4)cc3)NC(=O)[C@H](Cc3ccc(OCC(=O)O)cc3)NC2=O)c1 [Compound 2218] ({CH2CO}-[Phe(4-CONH2)]Y(Carboxymethyl)D[Phe(3-Me)]Y(Carboxymethyl)[Bip]Y(Carboxymethyl)[Orn][dL][Dab][Cha][Val(3-OH)]SC[Dab][Aun]-OH; thioether N-14),7.1
5,"Cc1cccc(C[C@@H]2NC(=O)[C@H](CC(=O)O)NC(=O)[C@H](Cc3ccc(OCC(=O)O)cc3)NC(=O)[C@H](Cc3ccncc3)NC(=O)CSC[C@@H](C(=O)N[C@@H](CCN)C(=O)NCCCCCCCCCCC(=O)O)NC(=O)[C@H](CO)NC(=O)[C@H](C(C)(C)O)NC(=O)[C@H](CC3CCCCC3)NC(=O)[C@H](CCN)NC(=O)[C@@H](CC(C)C)NC(=O)[C@H](CCCN)NC(=O)[C@H](Cc3cc(F)c(F)c(F)c3)NC(=O)[C@H](Cc3ccc(-c4ccccc4)cc3)NC(=O)[C@H](Cc3ccc(OCC(=O)O)cc3)NC2=O)c1 [Compound 2203] ({CH2CO}-[4Pal]Y(Carboxymethyl)D[Phe(3-Me)]Y(Carboxymethyl)[Bip][Phe(3,4,5-F3)][Orn][dL][Dab][Cha][Val(3-OH)]SC[Dab][Aun]-OH; thioether N-14)",41.7
6,C#CC[C@H](NC(=O)COCCOCCNC(=O)[C@H](CCN)NC(=O)[C@@H]1CSCC(=O)N[C@@H](Cc2ccncc2)C(=O)N[C@@H](Cc2ccc(OCC(=O)O)cc2)C(=O)N[C@@H](CC(=O)O)C(=O)N[C@@H](Cc2c[nH]c3ccccc23)C(=O)N[C@@H](C(C)C)C(=O)N[C@@H](Cc2ccc(-c3ccccc3)cc2)C(=O)N[C@@H]([C@@H](C)CC)C(=O)N[C@@H](CCCN)C(=O)N[C@H](CC(C)C)C(=O)N[C@@H](CCN)C(=O)N[C@@H](CC(C)C)C(=O)N[C@@H](C(C)C)C(=O)N[C@@H]([C@@H](C)O)C(=O)N1)C(=O)N[C@@H](CCCCN)C(=O)NCCCCCCCCCCC(=O)O [Compound 1196] ({CH2CO}-[4Pal]Y(Carboxymethyl)DWV[Bip]I[Orn][dL][Dab]LVTC[Dab][AEEA][Pra]K[Aun]-OH; thioether N-14),9.6
7,Cc1cccc(C[C@@H]2NC(=O)[C@H](CC(=O)O)NC(=O)[C@H](Cc3ccc(OCC(=O)O)cc3)NC(=O)[C@H](CCCNC(=N)N)NC(=O)CSC[C@@H](C(=O)N[C@@H](CCN)C(=O)NCCCCCCCCCCC(=O)O)NC(=O)[C@H]([C@@H](C)O)NC(=O)[C@H](C(C)C)NC(=O)[C@H](CC3CCCCC3)NC(=O)[C@H](CCN)NC(=O)[C@@H](CC(C)C)NC(=O)[C@H](CCCN)NC(=O)[C@H](CCCNC(N)=O)NC(=O)[C@H](Cc3ccc(-c4ccccc4)cc3)NC(=O)[C@H](Cc3ccc(OCC(=O)O)cc3)NC2=O)c1 [Compound 2836] ({CH2CO}-RY(Carboxymethyl)D[Phe(3-Me)]Y(Carboxymethyl)[Bip][Cit][Orn][dL][Dab][Cha]VTC[Dab][Aun]-OH; thioether N-14),16.4
8,CC(C)C[C@H]1NC(=O)[C@H](CCCN)NC(=O)[C@H](Cc2ccc(O)cc2)NC(=O)[C@H](Cc2ccc(-c3ccccc3)cc2)NC(=O)[C@H](C(C)C)NC(=O)[C@H](Cc2c[nH]c3ccccc23)NC(=O)[C@H](CC(=O)O)NC(=O)[C@H](Cc2ccc(OCC(=O)O)cc2)NC(=O)[C@H](CCCCNC(=N)N)NC(=O)CSC[C@@H](C(=O)N[C@@H](CCN)C(=O)NCCCCCCCCCCC(=O)O)NC(=O)[C@H](CCC(=O)O)NC(=O)[C@H](C(C)C)NC(=O)[C@H](CC2CCCCC2)NC(=O)[C@H](CCN)NC1=O [Compound 3395] ({CH2CO}-[hArg]Y(Carboxymethyl)DWV[Bip]Y[Orn][dL][Dab][Cha]VEC[Dab][Aun]-OH; thioether N-14),10
9,Cc1cccc(C[C@@H]2NC(=O)[C@H](CC(=O)O)NC(=O)[C@H](Cc3ccc(OCC(=O)O)cc3)NC(=O)[C@H](CCCNC(=N)N)NC(=O)CSC[C@@H](C(=O)N[C@@H](CCN)C(=O)NCCCCCCCCCCC(=O)O)NC(=O)[C@H](C(C)O)NC(=O)[C@H](C(C)(C)O)NC(=O)[C@H](CC3CCCCC3)NC(=O)[C@H](CCN)NC(=O)[C@@H](CC(C)C)NC(=O)[C@H](CCCN)NC(=O)[C@H](Cc3ccc(OCC(=O)O)cc3)NC(=O)[C@H](Cc3ccc(-c4ccccc4)cc3)NC(=O)[C@H](Cc3ccc(OCC(=O)O)cc3)NC2=O)c1 (stereo partly drawn) [Compound 3513] ({CH2CO}-RY(Carboxymethyl)D[Phe(3-Me)]Y(Carboxymethyl)[Bip]Y(Carboxymethyl)[Orn][dL][Dab][Cha][Val(3-OH)][Thr(3ξ)]C[Dab][Aun]-OH; thioether N-14),10.8

# Now from value to molecule:
row,IC50 [nM],SMILES
1,13,Cc1cccc(C[C@@H]2NC(=O)[C@H](CC(=O)O)NC(=O)[C@H](Cc3ccc(OCC(=O)O)cc3)NC(=O)[C@H](CN)NC(=O)CSC[C@@H](C(=O)N[C@@H](CCN)C(=O)NCCOCCOCC(=O)NCCCCCCCCCCC(=O)O)NC(=O)[C@H](CN)NC(=O)[C@H](C(C)C)NC(=O)[C@H](CC3CCCCC3)NC(=O)[C@H](CCN)NC(=O)[C@@H](CC3CCCCC3)NC(=O)[C@H](CCCN)NC(=O)[C@H](C(C)C)NC(=O)[C@H](Cc3ccc(-c4ccccc4)cc3)NC(=O)[C@H](C(C)C)NC2=O)c1 [Compound 2681] ({CH2CO}-[Dap]Y(Carboxymethyl)D[Phe(3-Me)]V[Bip]V[Orn][dCha][Dab][Cha]V[Dap]C[Dab][AEEA][Aun]-OH; thioether N-14)
2,82.9,Cc1cccc(C[C@@H]2NC(=O)[C@H](CC(=O)O)NC(=O)[C@H](Cc3ccc(OCC(=O)O)cc3)NC(=O)[C@H](CN)NC(=O)CSC[C@@H](C(=O)N[C@@H](CCCN)C(=O)NCCCCCCCCCCCCC(=O)O)NC(=O)[C@H](C(C)O)NC(=O)[C@H](C(C)C)NC(=O)[C@H](CC3CCCCC3)NC(=O)[C@H](CCN)NC(=O)[C@@H](CC(C)C)NC(=O)[C@H](CCCN)NC(=O)[C@H](CCCNC(N)=O)NC(=O)[C@H](Cc3ccc(-c4ccccc4)cc3)NC(=O)[C@H](C(C)C)NC2=O)c1 (stereo partly drawn) [Compound 3123] ({CH2CO}-[Dap]Y(Carboxymethyl)D[Phe(3-Me)]V[Bip][Cit][Orn][dL][Dab][Cha]V[Thr(3ξ)]C[Orn]-{NH(CH2)12COOH}; thioether N-14)
3,30.8,Cc1cccc(C[C@@H]2NC(=O)[C@H](CC(=O)O)NC(=O)[C@H](Cc3ccc(OCC(=O)O)cc3)NC(=O)[C@H](CN)NC(=O)CSC[C@@H](C(=O)N[C@@H](CC(=O)O)C(=O)NCCOCCOCC(=O)NCCCCCCCCCCC(=O)O)NC(=O)[C@@H](CO)NC(=O)[C@H](C(C)C)NC(=O)[C@H](CC3CCCCC3)NC(=O)[C@H](CCN)NC(=O)[C@@H](CC(C)C)NC(=O)[C@H](CCCN)NC(=O)[C@H](CCCNC(N)=O)NC(=O)[C@H](Cc3ccc(-c4ccccc4)cc3)NC(=O)[C@H](C(C)C)NC2=O)c1 [Compound 2021] ({CH2CO}-[Dap]Y(Carboxymethyl)D[Phe(3-Me)]V[Bip][Cit][Orn][dL][Dab][Cha]V[dS]CD[AEEA][Aun]-OH; thioether N-14)
4,8.9,Cc1cccc(C[C@@H]2NC(=O)[C@H](CC(=O)O)NC(=O)[C@H](Cc3ccc(OCC(=O)O)cc3)NC(=O)[C@H](CN)NC(=O)CSC[C@@H](C(=O)N[C@@H](C)C(=O)N[C@@H](CN)C(=O)NCC(=O)NCCCCCCCCCCC(=O)O)NC(=O)[C@H]([C@@H](C)O)NC(=O)[C@H](C(C)C)NC(=O)[C@H](CC3CCCCC3)NC(=O)[C@H](CCN)NC(=O)[C@@H](CC(C)C)NC(=O)[C@H](CCCN)NC(=O)[C@H](CCCNC(N)=O)NC(=O)[C@H](Cc3ccc(-c4ccccc4)cc3)NC(=O)[C@H](C(C)C)NC2=O)c1 [Compound 1053] ({CH2CO}-[Dap]Y(Carboxymethyl)D[Phe(3-Me)]V[Bip][Cit][Orn][dL][Dab][Cha]VTCA[Dap]G[Aun]-OH; thioether N-14)
